Results on 6 compounds are retold here after patent publication US10975037B2 (priority 2018, dated 2021).

Like-named read-outs stand apart in the source and are kept apart here.

One experiment deals with RORγT (Mus musculus (Mouse), UniProt P51450). The following applies: mice; cited from earlier work.
Experiment [1] deals with IL-17 production by CD4 T cells under conditions which favor Th17 differentiation. Description: Human Th17 assay (IL-17 production by CD4 T cells). To be noted: Homo sapiens, CD4+ T; read-out: Human Th17 Assay, IC50. Format: cell-based. How it is done:
The human Th17 assay tests the effect of RORγt modulatory compounds on IL-17 production by CD4 T cells under conditions which favor Th17 differentiation. Total CD4^+ T cells were isolated from the peripheral blood mononuclear cells (PBMC) of healthy donors using a CD4^+ T cell isolation kit II, following the manufacturer's instructions (Miltenyi Biotec). […] 50 μL of compound at titrated concentrations in DMSO were added into each well at final DMSO concentration at 0.2%. Cells were incubated for 1 hour, then 50 μL of Th17 cell differentiation medium was added to each well. […] Cells were cultured at 37° C. and 5% CO2 for 3 days. Supernatants were collected and the accumulated IL-17 in culture was measured by using MULTI-SPOT® Cytokine Plate following manufacture's instruction (Meso Scale Discovery). The plate was read using Sector Imager 6000, and IL-17 concentration was extrapolated from the standard curve. The IC50s were determined by GraphPad.

The next experiment deals with full-length human RORγt (Homo sapiens (Human), UniProt P51449). Description: RORγt (full-length human) reporter assay, conditions A or B, HEK293T cells. To be noted: for IC50: RORγt (FL) Reporter Assay A or B, IC50, HEK293T cells. Format: cell-based. The procedure, abridged: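 Dual-luciferase read-out was taken after an overnight (16–20 h) compound exposure. Firefly data were scaled between DMSO-only and saturating reference compound, Renilla-normalized, then plotted against concentration for IC50.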
Background: Reporter assays use an easily measured gene product as a stand-in for the process of interest.

In experiment [2] the target is human RORγt ligand binding domain (RORγt LBD) (Homo sapiens (Human), UniProt P51449). Description: RORγt ThermoFluor® assay (thermal shift binding). The procedure, abridged:
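Thermal shift with 0.065 mg/mL RORγt LBD and 60 μM 1,8-ANS in 100 mM Hepes pH 7.0, 10 mM NaCl, 2.5 mM GSH, 0.002% Tween-20.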
In general terms: Differential scanning fluorimetry follows unfolding on heating by fluorescence.

Setting [3] is: read-out: ThermoFluor® Assay, Kd.

What is called IC50 is the concentration that gives 50% inhibition. One may read the inhibition as the drop in the measured response relative to a control, in per cent. What is called Kd is the equilibrium constant for the complex coming apart.

full-length human RORγt, sequence (P51449 other isoform, or with tags, fused parts or gaps): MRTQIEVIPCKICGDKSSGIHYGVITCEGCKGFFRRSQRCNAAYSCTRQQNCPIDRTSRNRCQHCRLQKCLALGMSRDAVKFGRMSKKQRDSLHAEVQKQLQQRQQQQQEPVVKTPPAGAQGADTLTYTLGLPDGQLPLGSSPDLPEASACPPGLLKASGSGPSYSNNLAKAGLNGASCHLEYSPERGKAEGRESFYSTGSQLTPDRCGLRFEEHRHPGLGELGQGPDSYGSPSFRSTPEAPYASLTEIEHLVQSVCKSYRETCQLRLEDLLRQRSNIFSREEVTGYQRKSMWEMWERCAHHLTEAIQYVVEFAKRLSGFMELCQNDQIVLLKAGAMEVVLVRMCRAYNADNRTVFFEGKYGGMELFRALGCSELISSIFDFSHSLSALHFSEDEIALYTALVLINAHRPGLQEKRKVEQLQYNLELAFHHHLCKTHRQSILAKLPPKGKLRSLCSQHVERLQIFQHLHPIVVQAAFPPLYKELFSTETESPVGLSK
human RORγt ligand binding domain (RORγt LBD), sequence (P51449 other isoform, or with tags, fused parts or gaps): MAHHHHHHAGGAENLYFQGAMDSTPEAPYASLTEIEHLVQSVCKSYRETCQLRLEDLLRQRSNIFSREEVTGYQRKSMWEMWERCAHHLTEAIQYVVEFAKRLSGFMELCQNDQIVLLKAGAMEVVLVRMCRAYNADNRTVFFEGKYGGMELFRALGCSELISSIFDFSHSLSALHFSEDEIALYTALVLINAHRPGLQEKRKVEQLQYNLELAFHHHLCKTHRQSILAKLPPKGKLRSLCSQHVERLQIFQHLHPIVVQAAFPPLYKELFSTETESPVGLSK
RORγT, sequence (P51450 other isoform, or with tags, fused parts or gaps): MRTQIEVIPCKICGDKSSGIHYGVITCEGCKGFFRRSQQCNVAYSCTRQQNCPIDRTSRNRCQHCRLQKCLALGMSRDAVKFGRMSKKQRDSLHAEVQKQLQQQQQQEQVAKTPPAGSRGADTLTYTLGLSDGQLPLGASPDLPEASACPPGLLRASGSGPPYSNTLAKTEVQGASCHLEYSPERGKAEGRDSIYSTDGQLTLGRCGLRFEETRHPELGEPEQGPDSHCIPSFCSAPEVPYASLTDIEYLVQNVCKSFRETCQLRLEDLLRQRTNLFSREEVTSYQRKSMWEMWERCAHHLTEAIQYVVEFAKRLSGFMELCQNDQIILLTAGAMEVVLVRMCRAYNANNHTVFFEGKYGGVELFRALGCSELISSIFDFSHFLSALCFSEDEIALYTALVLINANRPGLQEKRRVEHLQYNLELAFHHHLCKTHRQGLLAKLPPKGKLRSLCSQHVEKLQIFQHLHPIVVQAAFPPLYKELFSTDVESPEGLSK

With `CC(=O)Nc1nc(C)c(S(=O)(=O)Nc2ccc(C(O)(C(F)(F)F)C(F)(F)F)cc2)s1` [SR1001], the Th17-dependent learned helplessness result on RORγT is given as “reduced Th17-dependent learned helplessness”.

`Cc1c(C(=O)NC[C@]2(O)CC[C@@H](S(C)(=O)=O)CC2)nn(C)c1-c1ccc(CCCC(F)(F)F)cc1OC(F)F` [Example 161, 5-(2-(Difluoromethoxy)-4-(4,4,4-trifluorobutyl)phenyl)-N-(((1s,4s)-1-hydroxy-4-(methylsulfonyl)cyclohexyl)methyl)-1,4-dimethyl-1H-pyrazole-3-carboxamide]: the IC50 in experiment [1] is 200 nM; against full-length human RORγt it was 7.8 nM. The inhibition at 3 µM on full-length human RORγt (HEK-293T, 3 μM compound concentration (footnote *), read-out: RORγt (FL) Reporter Assay A or B, % inhibition) came to 81%. Moreover, in experiment [2] (setting [3]), the Kd worked out at 32 nM.

In the case of `CCn1nc(C(=O)NC[C@]2(O)CC[C@@H](S(C)(=O)=O)CC2)c(Cl)c1-c1ccc(CC(C)C(F)(F)F)cc1OC(F)(F)F` (stereo partly drawn) [Example 191, 4-Chloro-1-ethyl-N-(((1s,4s)-1-hydroxy-4-(methylsulfonyl)cyclohexyl)methyl)-5-(4-(3,3,3-trifluoro-2-methylpropyl)-2-(trifluoromethoxy)phenyl)-1H-pyrazole-3-carboxamide], the IC50 in experiment [1] stood at 63 nM; on full-length human RORγt it was 22 nM. Moreover, the inhibition at 0.67 µM at full-length human RORγt (HEK-293T, 0.67 μM compound concentration (footnote ****), read-out: RORγt (FL) Reporter Assay A or B, % inhibition) amounted to 69%. In addition, in experiment [2] (setting [3]), the Kd was 1.5 nM.

As to `CCn1nc(C(=O)NC[C@H]2CC[C@H](S(C)(=O)=O)CC2)c(F)c1-c1ccc(N[C@H](C)C(F)(F)F)cc1OC` [Example 203, 1-Ethyl-4-fluoro-5-(2-methoxy-4-(((R)-1,1,1-trifluoropropan-2-yl)amino)phenyl)-N-(((1r,4R)-4-(methylsulfonyl)cyclohexyl)methyl)-1H-pyrazole-3-carboxamide], the IC50 in experiment [1] turned out to be 39 nM; against full-length human RORγt it was 130 nM. Besides, the inhibition at 6 µM on full-length human RORγt (HEK-293T, read-out: RORγt (FL) Reporter Assay A or B, % inhibition @ 6 μM, 6 μM compound concentration) turned out to be 105%. Also, the Kd in experiment [2] (setting [3]) came to 17 nM.

On to `CCn1nc(C(=O)NC[C@]2(C#N)CC[C@@H](S(C)(=O)=O)CC2)c(Cl)c1-c1ccc(N[C@H](C)C(F)(F)F)cc1OC` [Example 32, 4-Chloro-N-(((1s,4S)-1-cyano-4-(methylsulfonyl)cyclohexyl)methyl)-1-ethyl-5-(2-methoxy-4-(((R)-1,1,1-trifluoropropan-2-yl)amino)phenyl)-1H-pyrazole-3-carboxamide], for which the results for the IC50 (in experiment [1]; against full-length human RORγt) were 62 nM and 53 nM, respectively. The inhibition at 2 µM on full-length human RORγt (HEK-293T, read-out: RORγt (FL) Reporter Assay A or B, % inhibition) came out at 96%. Besides, the Kd in experiment [2] (setting [3]) is 7.6 nM.

As to `CCn1nc(C(=O)NC[C@]2(O)CC[C@@H](S(C)(=O)=O)C[C@H]2O)c(Cl)c1-c1ccc(C[C@H](C)C(F)(F)F)cc1OC(F)F` (stereo in doubt) [Example 53, 4-Chloro-5-(2-(difluoromethoxy)-4-((S*)-3,3,3-trifluoro-2-methylpropyl)phenyl)-N-(((1R*,2R*,4R*)-1,2-dihydroxy-4-(methylsulfonyl)cyclohexyl)methyl)-1-ethyl-1H-pyrazole-3-carboxamide], the figures for the IC50 (in experiment [1]; against full-length human RORγt) were 13 nM and 6.3 nM, respectively. The inhibition at 1 µM at full-length human RORγt (HEK-293T, 1 μM compound concentration (footnote ***), read-out: RORγt (FL) Reporter Assay A or B, % inhibition) stood at 99%. For the same compound, in experiment [2] (ThermoFluor® Assay, Kd), the Kd stood at 1.6 nM.
